{"source": "patent US20240226020A1", "about": "(AMGEN INC., priority 2021, published 2024)", "key": {"[1]": {"assay": "Water dispersion study: safety and tolerability", "type": "in vivo", "settings": "healthy subjects", "experimental": "Doses were administered orally on Days 1 and 4 during the mornings after an overnight fast of at least 10 hours. A total of 13 subjects entered the study (7 subjects receiving treatment in the sequences of Treatment A followed by Treatment B; and 6 subjects receiving treatment in the sequences of Treatment B followed by Treatment A). Data for all subjects was included in the pharmacokinetic (PK) and safety analyses. […] All events resolved by the end of the study."}, "[2]": {"assay": "Water dispersion study: pharmacokinetics of 8×120 mg tablets versus tablets dispersed in water", "type": "in vivo, healthy subjects", "settings": "plasma; for AUC(0-inf): human, oral, 960 mg, Geometric mean sotorasib AUCinf", "experimental": "Doses were administered orally on Days 1 and 4 during the mornings after an overnight fast of at least 10 hours. A total of 13 subjects entered the study (7 subjects receiving treatment in the sequences of Treatment A followed by Treatment B; and 6 subjects receiving treatment in the sequences of Treatment B followed by Treatment A). Data for all subjects was included in the pharmacokinetic (PK) and safety analyses. […] PK parameters including AUClast, AUCinf, and Cmax were estimated and compared between Treatment A and Treatment B. The natural log-transformed PK parameters were analyzed using a mixed model. The model included treat, period, and sequence as fixed effect and subject nested within a sequence as a random effect. […] Additionally, the pooled estimate (across all treatments) of the within-subject coefficient of variation was calculated, and residual plots were produced to assess the adequacy of the model(s) fitted."}, "[3]": {"assay": "Compressibility (tablet solid fraction as a function of compaction pressure)", "type": "physicochemical", "experimental": "(§1) After compression, tablets were measured for their ejected weight, thickness and diameter. Tablets were then stored for minimally 48 hours to allow for complete viscoelastic relaxation. The recovered dimensions were measured prior to diametrical compression testing performed using the HB compaction simulator operating at a constant loading rate of 5 mm/min. The force required to cause diametrical failure was recorded and used to compute radial tensile strength values.\nCompressibility: The ability of a powder bed to be reduced in volume due to the application of an applied stress gives an indication of powder compressibility. This behavior is described in terms of tablet solid fraction as a function of compaction pressure (see Table 38). Interpretation of the data considers the change in solid fraction between two pressure conditions. The increased difference in SF at a high pressure and a low pressure is indicative of increased compressibility of the blend. […] Therefore, a 3:1 plastic to brittle diluent ratio, e.g., a 3:1 Avicel PH102 to lactose ratio, is preferred."}, "[4]": {"test_system": "extracellular signal-regulated kinase (ERK)", "settings": "preclinical studies; cited from earlier work"}, "[5]": {"assay": "Compactibility and tabletability (radial tensile strength, compression pressure)", "type": "physicochemical", "experimental": "as §1\nCompactibility and Tabletability: The ability of a powder bed to cohere into or to form a compact gives an indication of powder compactibility. This behavior is described as a plot of tablet radial tensile strength (RTS) as a function of tablet solid fraction (SF) (FIG. 12A). For understanding fundamental material behavior, it is advantageous to compare materials at similar levels of solid fraction. […] The compactibility of all three placebo blends can be classified as “low” because each blend has been previously dry granulated. Tabletability is another relevant parameter which is useful in identifying the pressure needed to achieve a specific tablet hardness or tensile strength. This behavior is described as a plot of tablet radial tensile strength (RTS) as a function of compaction pressure (FIG. 12B)."}}, "note": "Entries after “also recorded” stand apart in the source; their conditions may differ."}
{"molecule": "C=CC(=O)N1CCN(c2nc(=O)n(-c3c(C)ccnc3C(C)C)c3nc(-c4c(O)cccc4F)c(F)cc23)[C@@H](C)C1", "note": "(atropisomer, axis not shown; (M)) [Sotorasib, 6-fluoro-7-(2-fluoro-6-hydroxyphenyl)-(1M)-1-[4-methyl-2-(propan-2-yl)pyridin-3-yl]-4-[(2S)-2-methyl-4-(prop-2-enoyl)piperazin-1-yl]pyrido[2,3-d]pyrimidin-2(1H)-one]", "values": [{"measurement": "Safety and tolerability", "setting": "[1]; single doses of 960 mg as tablets dispersed in water and as tablets", "result": "safe and well tolerated; also recorded: safe and well-tolerated"}, {"measurement": "Clinical laboratory evaluations, vital signs, 12-lead ECGs", "setting": "[1]; single doses of 960 mg", "result": "no clinically significant findings"}, {"measurement": "Serious adverse events", "setting": "[1]; single doses of 960 mg", "result": "no serious adverse events"}, {"measurement": "Treatment-emergent adverse events", "setting": "[1]; single doses of 960 mg, all mild, related to sotorasib, resolved", "result": "Three treatment-emergent adverse events of constipation, nausea and vomiting"}, {"measurement": "median sotorasib tmax", "setting": "[2]; 8×120 mg tablets (Formulation #8) dispersed in water (Treatment B), single oral dose, fasted", "result": 1, "unit": "h"}, {"measurement": "AUC(0-inf)", "setting": "[2]; administered as tablets (Treatment A)", "result": 25300, "unit": "ng·h/mL"}, {"measurement": "AUC(0-inf)", "setting": "[2]; administered as water dispersion (Treatment B)", "result": 26400, "unit": "ng·h/mL"}, {"measurement": "applied pressure required to produce a tablet with an out of die solid fraction of 0.85", "setting": "[3]", "result": "approximately 145 MPa"}, {"measurement": "phosphorylation of extracellular signal-regulated kinase (ERK)", "setting": "[4]", "result": "inhibited nearly all detectable phosphorylation"}, {"measurement": "Assessment of compressibility and compactibility", "setting": "[5]", "result": "high levels of compressibility combined with very low levels of compactibility"}, {"measurement": "solid fraction at a theoretical strength value of 2 MPa", "setting": "[5]", "result": 0.85}, {"measurement": "RTS (MPa) @ 0.85 SF", "setting": "[5]; 0.85 SF", "result": 1.59, "unit": "MPa"}, {"measurement": "RTS (MPa) @ 150 MPa", "setting": "[5]; 150 MPa", "result": 1.62, "unit": "MPa"}, {"measurement": "CP (MPa) @ RTS = 2 MPa", "setting": "[5]; RTS = 2 MPa", "result": 149.00, "unit": "MPa"}, {"measurement": "SF @ RTS = 2 MPa", "setting": "[5]; RTS = 2 MPa", "result": 0.85}, {"measurement": "radial tensile strength", "setting": "[5]; compressed to a peak pressure of 150 MPa", "result": 1.62, "unit": "MPa"}, {"measurement": "radial tensile strength", "setting": "[5]; compressed to an out of die solid fraction of 0.85", "result": 1.59, "unit": "MPa"}]}
